Where two headings read alike, the source gives them in different places.

The source of these data is patent US20070191262A1, “Cancer Therapy and Prevention Based on Modulation of Complement activity” (University of Iowa Research Foundation, priority 2005, published 2007).

For data set [1] the following is noted: multiphasic clearance from plasma; cited from earlier work.
The conditions of data set [2]: patients with creatinine clearance >35 mL per minute; cited from earlier work.
For data set [3] the following is noted: cited from earlier work.
Another data set has as its system follicular lymphoma. Briefly: Single agent rituximab therapy of follicular lymphoma, outcome by C1qA[276], CD32 and CD16 polymorphism. The class given is in vivo, human. On the procedure:
A polymorphism in the C1qA component of complement correlates with prolonged complete remission following rituximab therapy of follicular lymphoma. The non-coding polymorphism at C1qA[276] was examined in 90 patients with follicular lymphoma who were treated with rituximab (single agent) to assess whether a correlation exists between this genetic polymorphism of the complement pathway and clinical effectiveness of rituximab. The presence of an A versus a G allele at the C1qA[276] locus was determined using restriction fragment length polymorphism analysis by investigators blinded to the clinical outcome of the patients. The molecular and clinical data was then analyzed according to C1qA polymorphism, including measurement of radiographic response and duration of response, using methods similar to those used to evaluate the correlation between polymorphisms in CD16/CD32 genes and clinical outcome.
However, prolonged remission was noted among those subjects that achieved remission (either partial or complete response) for individuals who were carriers of the A allele at the C1qA[276] locus (AA or AG) compared to homozygous GG subjects. The strongest correlation was found among those subjects that achieved a complete remission to single agent rituximab. […] A allele was an independent factor for good prognosis, while FcγRIIIa 158 phenylalanine carrier and FcγRIIa 131 arginine carrier indicated poor survival. Thus, the relative risk was 0.2 for C1qA[276] AA/AG versus GG after controlling for CD32 and CD16 polymorphisms. The relative risks were 4.8 for CD32 HR versus HH and 6.16 for CD32 RR versus HH after controlling for complement and CD16 polymorphisms. The relative risks were 4.57 for CD16 VF against VV and 3.69 for CD16 FF versus VV after controlling for complement and CD32 polymorphisms.

Another data set deals with Raji cells. Briefly: Complement-mediated killing of Raji cells in the presence of rituximab and serum from genotyped donors. The data set is classed as cell-based, human. On the procedure:
FIG. 1—Percentage of live Raji cells after 72 hours incubation in the presence of rituximab and serum from donors with known C1qA[276] genotype.
(§1) C1qA polymorphism correlates with the ability of complement to opsonize and kill target cells in the presence of therapeutic antibodies. The inventors collected and coded serum samples from 10 healthy donors previously genotyped for C1qA[276A/G] polymorphism. The sera were extensively analyzed for function of complement and ability to opsonize target cells by members of an outside collaborative research group blinded to the identity of the donors and the C1q genotype. The results from killing experiments are presented in summary in FIG. 1. The experiments were designed to determine the ability of the complement from human sera to lyse and thus limit the proliferation of Raji cells, a CD20 expressing B-cell lymphoma cell line, in the presence of rituximab, an anti-CD20 monoclonal with extensive application in clinical therapy of lymphoma. […] The inventors are currently in the process of collecting additional sera for testing. In a one-way ANOVA, p value is 0.086 at this point. Assuming future results will go with the trend observed, the ANOVA test will be in the 0.002 range if only 2 homozygous of each kind are added, and excluding the heterozygous. A better test for this type of data would be Dunn's multiple comparison test. […]

In data set [4] the test system is C3b deposition on B-cell surface. Briefly: C3b opsonization of target cells in the presence of rituximab and donor serum (flow cytometry). The note with it: serum from homozygous A donors. The data set is classed as cell-based, human.
From the text: FIG. 2—Level of C3b opsonization of B-cell surface in the presence of rituximab and serum from individuals with known C1qA[276] genotype.
as §1

Consider `CC[C@]1(O)C[C@H]2CN(CCc3c([nH]c4ccccc34)[C@@](C(=O)OC)(c3cc4c(cc3OC)N(C=O)[C@H]3[C@@](O)(C(=O)OC)[C@H](OC(C)=O)[C@]5(CC)C=CCN6CC[C@]43[C@@H]65)C2)C1` [Vincristine], for which, in data set [1], the terminal half-life entry is “about 24 hr”.

Bleomycin: in data set [2], the “serum or plasma terminal elimination half-life” value is “approximately 115 min”. For the same compound, the tissue concentration result in data set [3] (hematopoietic tissue / bone marrow) was “low concentrations”; in data set [3] (mice, skin, lungs, kidneys, peritoneum, lymphatics), “high concentrations”.

For the compound “Rituximab: monoclonal antibody that targets CD20, which is found on more than 90% of non-Hodgkin's lymphomas”, the “difference in response rate based on C1qA polymorphisms” value with follicular lymphoma (90 follicular lymphoma patients, single agent) was “No statistically significant difference”. Besides, the time to progression turned out to be 830 days with follicular lymphoma (C1qA[276] AA/AG subjects who achieved complete remission) and 250 days in the data set with follicular lymphoma (C1qA[276] GG subjects who achieved complete remission). The relative risk in the data set on follicular lymphoma (C1qA[276] AA/AG versus GG, controlling for CD32 and CD16 polymorphisms) was 0.2; in the data set with follicular lymphoma (CD16 FF versus VV, controlling for complement and CD32 polymorphisms) it was 3.69; in the data set with follicular lymphoma (CD16 VF against VV, controlling for complement and CD32 polymorphisms), 4.57; in the data set on follicular lymphoma (CD32 HR versus HH, controlling for complement and CD16 polymorphisms) it was 4.8; in the data set with follicular lymphoma (CD32 RR versus HH, controlling for complement and CD16 polymorphisms) it was 6.16. Further, the “HR (time to progression)” value with follicular lymphoma (GG versus AA/AG, complete remission group, 95% CI=2.1-96.9) is on record as 4.1. The “average lysis of Raji cells” value with Raji cells (heterozygous sera) is “moderate efficiency”. Besides, the “ability of serum complement to lyse Raji cells” value in the data set on Raji cells (serum of homozygous C1qA[276A] donors versus homozygous G, 72 hours, p<0.04) was “significant decrease”. Further, in data set [4], the “deposition of C3b molecules on the surface of target cells” value is “least efficient”.
